What was measured:
CYP2C9 = CYP2C9 (Homo sapiens, UniProt P11712); settings: recombinant enzyme
CYP3A4 = CYP3A4 (Homo sapiens, UniProt P08684); assay: Intrinsic clearance in human recombinant CYP3A4
[1] = In vitro Caco-2 cell permeability; type: in vitro ADME; settings: human
Text: The first-order absorption model has different absorption rate constants (ka) and fraction available from dosage form (fa) to simulate absorption processes in fasting and fed states. […] Caco-2 (human colorectal adenocarcinoma) cells are used to model the intestinal epithelial barrier. The Simcyp (Version 19.0, Certara Inc., Sheffield, UK) minimal PBPK, which treats all organs other than the intestine and liver as a single compartment ([Rowland Yeo et al., 2010]), was selected, along with a single adjusting compartment (SAC) distribution model. The SAC is a nonphysiologic compartment that permits adjustment to the drug concentration profile in the systemic compartment ([Ke et al., 2016]).

CYP2C9, sequence (P11712 whole entry): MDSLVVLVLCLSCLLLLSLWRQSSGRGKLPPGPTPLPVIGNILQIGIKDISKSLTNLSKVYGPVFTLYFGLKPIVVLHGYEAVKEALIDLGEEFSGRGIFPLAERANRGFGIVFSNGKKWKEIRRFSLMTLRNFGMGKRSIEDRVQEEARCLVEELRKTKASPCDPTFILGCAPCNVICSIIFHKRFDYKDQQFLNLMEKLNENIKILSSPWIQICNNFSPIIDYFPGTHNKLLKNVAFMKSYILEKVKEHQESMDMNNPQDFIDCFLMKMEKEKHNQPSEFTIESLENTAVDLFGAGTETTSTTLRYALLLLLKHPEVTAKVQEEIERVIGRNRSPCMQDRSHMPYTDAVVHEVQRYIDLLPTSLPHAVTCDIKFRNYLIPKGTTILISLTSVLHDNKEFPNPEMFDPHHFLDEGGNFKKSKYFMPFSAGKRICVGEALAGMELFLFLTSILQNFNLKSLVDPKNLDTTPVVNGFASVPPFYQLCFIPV
CYP3A4, sequence (P08684 whole entry): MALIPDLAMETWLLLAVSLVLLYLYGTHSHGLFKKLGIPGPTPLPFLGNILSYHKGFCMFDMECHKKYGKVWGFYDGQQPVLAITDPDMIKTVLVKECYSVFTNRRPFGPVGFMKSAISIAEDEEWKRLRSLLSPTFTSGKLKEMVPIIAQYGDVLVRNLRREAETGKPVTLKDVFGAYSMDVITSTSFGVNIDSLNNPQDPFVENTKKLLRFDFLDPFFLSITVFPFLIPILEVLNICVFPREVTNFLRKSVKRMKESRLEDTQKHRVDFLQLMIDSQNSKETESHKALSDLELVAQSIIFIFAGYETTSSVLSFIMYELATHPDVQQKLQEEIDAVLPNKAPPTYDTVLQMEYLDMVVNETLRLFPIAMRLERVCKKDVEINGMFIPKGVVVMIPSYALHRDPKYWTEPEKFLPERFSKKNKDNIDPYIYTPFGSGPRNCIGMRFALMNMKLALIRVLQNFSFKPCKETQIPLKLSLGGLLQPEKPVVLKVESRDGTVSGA

O=C(O)Cc1ccccc1Nc1c(Cl)cccc1Cl [Diclofenac]
CLint CYP2C9 (CYP2C9): 2.965 µL/min/pmol CYP

Cc1ncc2n1-c1ccc(Cl)cc1C(c1ccccc1F)=NC2 [Midazolam, reference compound]
CLint CYP3A4 (CYP3A4): 3.083 µL/min/pmol CYP

CC(C)NCC(O)COc1cccc2ccccc12 (stereo not drawn) [Propranolol, propranolol, reference compound]
Papp [1]: 5.68 ×10⁻⁶ cm/s
